Results on two molecules are retold here after patent US20090264457A1, “Combination of at least two 5HT6-Ligands” (priority 2007, published 2009).

“Also recorded” adds a separate entry of the source.

One experiment has as its target 5HT6 receptor (Homo sapiens, UniProt P50406). Conditions: cited from earlier work.
In a further experiment the test system is Lister Hooded rats. As to the kind of experiment: Novel object discrimination trial (two trial paradigm). Conditions: for Dose at which the maximum effect was achieved in dose response trials: i.p., drug 20 minutes before familiarisation trial, COMPOUND 1 at 1.25, 2.5, 5 or 10 mg/kg, SB-271046 at 5 or 10 mg/kg. It is filed as in vivo, rat. As for the experimental part: Adult male Lister Hooded rats (Charles River, UK) weighing 200-350 g at the start of the experiment were housed in groups of four on a 12:12 h light:dark cycle (lights on at 07:00 h). Food and water were available ad libitum throughout the study, and the room temperature (21±2° C.) and relative humidity (45-65%) were kept constant. […] Each drug combination was administered to all rats in the group over a period of 4 weeks in a random order using a seven day behavioural test interval.
The two trial novel object discrimination paradigm utilised, was as described by Ennaceur and Delacour, (1988) with minor modification (King et al., 2004b; Woolley et al., 2003). The twelve open field test arenas used for object discrimination were clear perspex boxes (39×23.5 cm with 24.5 cm high walls) to which each rat was habituated for 60 minutes the day prior to test days. On the test day the first drug was administered −40 minutes and the second drug −20 minutes before the familiarisation trial. Therefore, 20 minutes after the injection each rat received 3 minutes acclimatisation to the perspex box in absence of objects which was then followed by the 3 minute familiarisation trial and a second 3 minute choice trial following a 4 hour inter-trial interval. During both trials, exploration of each object was defined as the time spent (s) sniffing (within 1 cm of it with active vibrissae), licking, chewing or touching the object with the nose.

Sequence of 5HT6 receptor (P50406 whole entry): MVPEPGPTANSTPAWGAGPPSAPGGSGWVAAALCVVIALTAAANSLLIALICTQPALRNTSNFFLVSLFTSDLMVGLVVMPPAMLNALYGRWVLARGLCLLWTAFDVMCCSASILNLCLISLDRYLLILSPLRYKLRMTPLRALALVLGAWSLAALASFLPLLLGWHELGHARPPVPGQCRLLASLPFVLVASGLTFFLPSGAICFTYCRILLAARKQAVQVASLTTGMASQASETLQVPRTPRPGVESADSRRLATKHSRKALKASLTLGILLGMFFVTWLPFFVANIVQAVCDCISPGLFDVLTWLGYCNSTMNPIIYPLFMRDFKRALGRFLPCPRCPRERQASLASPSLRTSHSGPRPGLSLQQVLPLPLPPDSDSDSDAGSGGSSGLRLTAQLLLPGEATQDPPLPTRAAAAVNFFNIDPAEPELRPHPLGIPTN

Turning to `COc1ccc(NS(=O)(=O)c2sc3ccc(Cl)cc3c2C)cc1N1CCNCC1` [SB-271046, 5-Chloro-N-(4-methoxy-3-(piperazin-1-yl)phenyl)-3-methyl-2-benzothiophene sulfonamide], the “Functionality on the 5HT6 receptor” value on 5HT6 receptor is “antagonist”. The “Effectiveness alone in novel object discrimination” value with Lister Hooded rats (SB-271046 alone at 5 mg/kg i.p., 5 mg/kg) is given as “either not or very low effective; also recorded: neither COMPOUND 1 at 1 mg/kg nor SB-271046 at 5 mg/kg being significantly effective”. In addition, the “Dose at which the maximum effect was achieved in dose response trials” value in the experiment with Lister Hooded rats stood at 10 mg/kg.
Turning to `CN(C)CCc1c[nH]c2ccc(NS(=O)(=O)c3c(Cl)nc4sccn34)cc12` [COMPOUND 1, 6-Chloro-imidazo[2,1-b]thiazole-5-sulfonic acid [3-(2-dimethylamino-ethyl)-1H-indol-5-yl]-amide], the “Functionality on the 5HT6 receptor” value on 5HT6 receptor is recorded as “agonist”. Moreover, in the experiment with Lister Hooded rats (COMPOUND 1 alone at 1 mg/kg i.p., 1 mg/kg), the “Effectiveness alone in novel object discrimination” value is recorded as “either not or very low effective; also recorded: neither COMPOUND 1 at 1 mg/kg nor SB-271046 at 5 mg/kg being significantly effective”. In addition, in the experiment with Lister Hooded rats, the “Dose at which the maximum effect was achieved in dose response trials” value amounted to 5 mg/kg.
